# Assay results published in patent publication US8952024B2, “Herbicidal pyrimidone derivatives” (E I du Pont de Nemours and Company, priority 2009, dated 2015).
# Key:
# Format in all cases: in vivo
# [1] = system: barnyardgrass (Echinochloa crus-galli); experiment: Test A pre-/postemergence plant response
# Outline: (§1)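 Approximately ten days after concurrent pre- and postemergence spraying in a greenhouse, plants were compared with untreated controls and rated visually for injury, 0 = no effect to 100 = complete control. Preemergence spray was directed onto loam/sand soil; postemergence targeted 1–2 leaf seedlings.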
# corn (Zea mays) = experiment: Test A pre-/postemergence plant response
# Outline: as §1
# [2] = system: giant foxtail (Setaria faberii); experiment: Test A pre-/postemergence plant response
# Outline: as §1
# [3] = system: large crabgrass (Digitaria sanguinalis); experiment: Test A pre-/postemergence plant response
# Outline: as §1
# [4] = system: morningglory (Ipomoea spp.); experiment: Test A pre-/postemergence plant response
# Outline: as §1
# [5] = system: pigweed (Amaranthus retroflexus); experiment: Test A pre-/postemergence plant response
# Outline: as §1
# [6] = system: velvetleaf (Abutilon theophrasti); experiment: Test A pre-/postemergence plant response
# Outline: as §1
# [7] = system: wheat (Triticum aestivum); experiment: Test A pre-/postemergence plant response
# Outline: as §1
# [8] = system: bermudagrass (Cynodon dactylon); experiment: Test B pre-/postemergence plant response
# Outline: (§2)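 Visually scored on a 0 to 100 scale after 13 to 15 days in greenhouse versus controls. Treatments were preemergence on seeded loam/sand soil and postemergence on 1- to 4-leaf plants.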
# [9] = system: cocklebur (Xanthium strumarium); experiment: Test B pre-/postemergence plant response
# Outline: as §2
# [10] = system: wheat (Triticum aestivum); experiment: Test B pre-/postemergence plant response
# Outline: as §2
# [11] = Postemergence, 125 g ai/ha, visual injury, 0 to 100 scale (0 no effect, 100 complete control), approx. ten days
# [12] = Postemergence, 500 g ai/ha, 0 to 100 scale, 0 = no effect, 100 = complete control, approx. ten days
# [13] = Preemergence, 125 g ai/ha, 0 to 100 scale, 0 = no effect, 100 = complete control
# [14] = Preemergence, 500 g ai/ha, visual injury, 0 to 100 scale (0 no effect, 100 complete control), approx. ten days
# [15] = 250 g ai/ha, Preemergence, 0 to 100 scale
# [16] = Postemergence, 31 g ai/ha, scale 0 to 100 (0 no effect, 100 complete control)
# [17] = Postemergence, 62 g ai/ha, scale 0 (no effect) to 100 (complete control), 13 to 15 days
# [18] = Postemergence, 125 g ai/ha, scale 0 to 100 (0 no effect, 100 complete control), 13 to 15 days
# [19] = Postemergence, 250 g ai/ha, scale 0 to 100
# [20] = Preemergence, 31 g ai/ha, scale 0 to 100 (0 no effect, 100 complete control)
# [21] = Preemergence, 62 g ai/ha, scale 0 to 100, 0 no effect, 100 complete control
# [22] = Preemergence, 125 g ai/ha, 0 to 100 scale
# [23] = Postemergence, 125 g ai/ha, visual rating after 13 to 15 days, scale 0 (no effect) to 100 (complete control)
# [24] = 31 g ai/ha, postemergence, scale 0 to 100, 0 is no effect, 100 is complete control
# [25] = Postemergence, 250 g ai/ha, scale 0 to 100 (0 no effect, 100 complete control)
# [26] = Preemergence, 125 g ai/ha, scale 0 to 100, 0 no effect, 100 complete control
molecule,measurement,setting,value
5-[(1-ethyl-5-hydroxy-1H-pyrazol-4-yl)carbonyl]-2-phenyl-3-(phenylmethyl)-4(3H)-pyrimidinone [Compound 20],Barnyardgrass plant response rating,[1]; [11],50
same,"Plant response rating, Barnyardgrass",[1]; [12],90
same,"Plant response rating, Barnyardgrass",[1]; [13],30
same,"Plant response rating, Barnyardgrass",[1]; [14],60
same,Corn plant response rating,corn (Zea mays); [11],0
same,"Plant response rating, Corn",corn (Zea mays); [12],10
same,"Plant response rating, Corn",corn (Zea mays); [13],0
same,"Plant response rating, Corn",corn (Zea mays); [14],0
same,"Foxtail, Giant plant response rating",[2]; [11],30
same,"Plant response rating, Foxtail, Giant",[2]; [12],60
same,"Plant response rating, Foxtail, Giant",[2]; [13],0
same,"Plant response rating, Foxtail, Giant",[2]; [14],10
same,"Crabgrass, Large plant response rating",[3]; [11],90
same,"Plant response rating, Crabgrass, Large",[3]; [12],90
same,"Plant response rating, Crabgrass, Large",[3]; [13],50
same,"Plant response rating, Crabgrass, Large",[3]; [14],80
same,Morningglory plant response rating,[4]; [11],80
same,"Plant response rating, Morningglory",[4]; [12],90
same,"Plant response rating, Morningglory",[4]; [13],0
same,"Plant response rating, Morningglory",[4]; [14],100
same,Pigweed plant response rating,[5]; [11],100
same,"Plant response rating, Pigweed",[5]; [12],100
same,"Plant response rating, Pigweed",[5]; [13],80
same,"Plant response rating, Pigweed",[5]; [14],100
same,Velvetleaf plant response rating,[6]; [11],100
same,"Plant response rating, Velvetleaf",[6]; [12],100
same,"Plant response rating, Velvetleaf",[6]; [13],80
same,"Plant response rating, Velvetleaf",[6]; [14],90
same,Wheat plant response rating,[7]; [11],0
same,"Plant response rating, Wheat",[7]; [12],10
same,"Plant response rating, Wheat",[7]; [13],0
same,"Plant response rating, Wheat",[7]; [14],0
same,"Plant response rating, Bermudagrass",[8]; [15],90
same,"Plant response rating, Bermudagrass",[8]; [16],15
same,"Plant response rating, Bermudagrass",[8]; [17],25
same,"Plant response rating, Bermudagrass",[8]; [18],70
same,Bermudagrass plant response rating,[8]; [19],80
same,"Plant response rating, Bermudagrass",[8]; [20],10
same,"Plant response rating, Bermudagrass",[8]; [21],70
same,Bermudagrass plant response rating,[8]; [22],80
same,"Plant response rating, Cocklebur",[9]; [15],100
same,"Plant response rating, Cocklebur",[9]; [16],65
same,"Plant response rating, Cocklebur",[9]; [17],80
same,"Plant response rating, Cocklebur",[9]; [23],85
same,Cocklebur plant response rating,[9]; [19],100
same,"Plant response rating, Cocklebur",[9]; [20],10
same,"Plant response rating, Cocklebur",[9]; [21],10
same,Cocklebur plant response rating,[9]; [22],70
same,"Plant response rating, Wheat",[10]; [15],0
same,"Plant response rating, Wheat",[10]; [16],0
same,"Plant response rating, Wheat",[10]; [17],0
same,"Plant response rating, Wheat",[10]; [23],10
same,Wheat plant response rating,[10]; [19],30
same,"Plant response rating, Wheat",[10]; [20],0
same,"Plant response rating, Wheat",[10]; [21],0
same,Wheat plant response rating,[10]; [22],0
O=C1CCCC(O)=C1C(=O)c1cnc(-c2cccs2)n(-c2ccccc2)c1=O [Compound 66],Barnyardgrass plant response rating,[1]; [11],80
same,"Plant response rating, Barnyardgrass",[1]; [12],90
same,"Plant response rating, Barnyardgrass",[1]; [13],20
same,"Plant response rating, Barnyardgrass",[1]; [14],70
same,"Plant response rating, Corn",corn (Zea mays); [12],60
same,"Plant response rating, Corn",corn (Zea mays); [13],0
same,"Plant response rating, Corn",corn (Zea mays); [14],0
same,"Foxtail, Giant plant response rating",[2]; [11],70
same,"Plant response rating, Foxtail, Giant",[2]; [12],80
same,"Plant response rating, Foxtail, Giant",[2]; [14],80
same,"Crabgrass, Large plant response rating",[3]; [11],70
same,"Plant response rating, Crabgrass, Large",[3]; [12],90
same,"Plant response rating, Crabgrass, Large",[3]; [13],90
same,"Plant response rating, Crabgrass, Large",[3]; [14],100
same,Morningglory plant response rating,[4]; [11],90
same,"Plant response rating, Morningglory",[4]; [12],90
same,"Plant response rating, Morningglory",[4]; [13],0
same,"Plant response rating, Morningglory",[4]; [14],30
same,Pigweed plant response rating,[5]; [11],100
same,"Plant response rating, Pigweed",[5]; [12],100
same,"Plant response rating, Pigweed",[5]; [13],90
same,"Plant response rating, Pigweed",[5]; [14],100
same,Velvetleaf plant response rating,[6]; [11],100
same,"Plant response rating, Velvetleaf",[6]; [12],100
same,"Plant response rating, Velvetleaf",[6]; [13],70
same,"Plant response rating, Velvetleaf",[6]; [14],100
same,Wheat plant response rating,[7]; [11],0
same,"Plant response rating, Wheat",[7]; [12],0
same,"Plant response rating, Wheat",[7]; [13],0
same,"Plant response rating, Wheat",[7]; [14],0
same,"Plant response rating, Bermudagrass",[8]; [24],70
same,"Plant response rating, Bermudagrass",[8]; [15],98
same,"Plant response rating, Bermudagrass",[8]; [17],70
same,"Plant response rating, Bermudagrass",[8]; [23],95
same,"Plant response rating, Bermudagrass",[8]; [25],95
same,"Plant response rating, Bermudagrass",[8]; [20],20
same,"Plant response rating, Bermudagrass",[8]; [21],80
same,"Plant response rating, Bermudagrass",[8]; [26],98
same,"Plant response rating, Cocklebur",[9]; [24],10
same,"Plant response rating, Cocklebur",[9]; [15],0
same,"Plant response rating, Cocklebur",[9]; [17],10
same,"Plant response rating, Cocklebur",[9]; [23],25
same,"Plant response rating, Cocklebur",[9]; [25],45
same,"Plant response rating, Cocklebur",[9]; [20],0
same,"Plant response rating, Cocklebur",[9]; [21],0
same,"Plant response rating, Cocklebur",[9]; [26],0
same,"Plant response rating, Wheat",[10]; [24],0
same,"Plant response rating, Wheat",[10]; [23],0
same,"Plant response rating, Wheat",[10]; [25],0
same,"Plant response rating, Wheat",[10]; [20],0
same,"Plant response rating, Wheat",[10]; [21],0
same,"Plant response rating, Wheat",[10]; [26],0
O=C1CCCC([O-])=C1C(=O)c1cnc(-c2ccccc2)n(-c2ccccc2)c1=O.[K+] [Compound 14],Barnyardgrass plant response rating,[1]; [11],30
same,"Plant response rating, Barnyardgrass",[1]; [12],80
same,"Plant response rating, Barnyardgrass",[1]; [13],10
same,"Plant response rating, Barnyardgrass",[1]; [14],70
same,Corn plant response rating,corn (Zea mays); [11],0
same,"Plant response rating, Corn",corn (Zea mays); [12],20
same,"Plant response rating, Corn",corn (Zea mays); [13],0
same,"Plant response rating, Corn",corn (Zea mays); [14],0
same,"Foxtail, Giant plant response rating",[2]; [11],30
same,"Plant response rating, Foxtail, Giant",[2]; [12],90
same,"Plant response rating, Foxtail, Giant",[2]; [13],40
same,"Plant response rating, Foxtail, Giant",[2]; [14],90
same,"Crabgrass, Large plant response rating",[3]; [11],30
same,"Plant response rating, Crabgrass, Large",[3]; [12],90
same,"Plant response rating, Crabgrass, Large",[3]; [13],30
same,"Plant response rating, Crabgrass, Large",[3]; [14],90
same,Morningglory plant response rating,[4]; [11],20
same,"Plant response rating, Morningglory",[4]; [12],100
same,"Plant response rating, Morningglory",[4]; [13],10
same,"Plant response rating, Morningglory",[4]; [14],60
same,Pigweed plant response rating,[5]; [11],80
same,"Plant response rating, Pigweed",[5]; [12],100
same,"Plant response rating, Pigweed",[5]; [13],100
same,"Plant response rating, Pigweed",[5]; [14],100
same,Velvetleaf plant response rating,[6]; [11],100
same,"Plant response rating, Velvetleaf",[6]; [12],100
same,"Plant response rating, Velvetleaf",[6]; [13],90
same,"Plant response rating, Velvetleaf",[6]; [14],100
same,Wheat plant response rating,[7]; [11],0
same,"Plant response rating, Wheat",[7]; [12],0
same,"Plant response rating, Wheat",[7]; [13],0
same,"Plant response rating, Wheat",[7]; [14],0
same,"Plant response rating, Bermudagrass",[8]; [15],100
same,"Plant response rating, Bermudagrass",[8]; [16],70
same,"Plant response rating, Bermudagrass",[8]; [17],70
same,"Plant response rating, Bermudagrass",[8]; [18],80
same,Bermudagrass plant response rating,[8]; [19],80
same,"Plant response rating, Bermudagrass",[8]; [20],70
same,"Plant response rating, Bermudagrass",[8]; [21],75
same,Bermudagrass plant response rating,[8]; [22],100
same,"Plant response rating, Cocklebur",[9]; [15],95
same,"Plant response rating, Cocklebur",[9]; [16],80
same,"Plant response rating, Cocklebur",[9]; [17],90
same,"Plant response rating, Cocklebur",[9]; [23],90
same,Cocklebur plant response rating,[9]; [19],98
same,"Plant response rating, Cocklebur",[9]; [20],0
same,"Plant response rating, Cocklebur",[9]; [21],85
same,Cocklebur plant response rating,[9]; [22],85
same,"Plant response rating, Wheat",[10]; [15],0
same,"Plant response rating, Wheat",[10]; [16],0
same,"Plant response rating, Wheat",[10]; [17],0
same,"Plant response rating, Wheat",[10]; [23],0
same,Wheat plant response rating,[10]; [19],20
same,"Plant response rating, Wheat",[10]; [20],0
same,"Plant response rating, Wheat",[10]; [21],0
same,Wheat plant response rating,[10]; [22],0
